Test results reported in EP4772497A1, “POLYMORPHS OF NITROGEN-CONTAINING HETEROCYCLIC COMPOUNDS, AND USES THEREOF” (BNH Research Co., Ltd., priority 2023, dated 2025).

How the values were obtained:
[1] = Bulk stability of crystalline form C under stress conditions (HPLC, XRPD, color); assay type: physicochemical; conditions: for Color / Purity (HPLC) Initial purity:99.9%: 1 week
Description: Crystalline form C was placed in an open container at 25°C/92.5% RH, in an open container at 40°C/75% RH, and in a closed container at 60°C for 1 week, respectively. After exposure to the stress conditions, the samples were characterized by XRPD and HPLC, and examined for color changes.
Reference is made to Experimental Method 6 for the HPLC conditions.

[2] = Hygroscopicity by dynamic vapor sorption (DVS); assay type: physicochemical
Description: Instrument model: SMS DVS Advantage Dynamic Vapor Sorption System Test method: A sample (10 to 15 mg) is taken and placed on a DVS sample pan, and measurement is performed. Detailed DVS parameters are as follows. Temperature: 25°C Equilibrium dm/dt = 0.002%/min: (minimum: 60 min, maximum: 240 min) Relative humidity (RH (%)) measurement gradient: 10% Relative Humidity (RH (%)) measurement gradient cycle: 40-0-95-0-40% The following description provides the criteria for determining hygroscopicity: [Table 6]
The moisture adsorption and desorption behavior of crystalline form C was investigated by the DVS test of Experimental Method 5. XRPD was performed to confirm any change in form after the DVS test.

APP/PS1 mice [3] = assay: fEPSP slope and LTP in hippocampal CA1 (Schaffer collateral) after dosing, ex vivo synaptic plasticity; conditions: APP/PS1 mice 15 months old, form C 1 mg/kg orally once daily about 11 to 13 days, aducanumab 5 mg/kg i.v., four weekly injections
Description: (§1) Using APP/PS1 mice (15 months old, Taconic Biosciences), an animal model of Alzheimer's disease, the efficacy of crystalline form C and aducanumab (Creative Biolabs) was evaluated when administered alone or in combination, respectively. A control group and four experimental groups were prepared as follows (see Table 14).
(§2) For the control antibody, an isotype antibody was administered intravenously, and for the vehicle, 200 µL of a mixed solution of DMSO (10):PEG400 (44):saline (55) was administered orally. Five mice were used for each treatment group.
(§3) Aducanumab was administered at a dose of 5 mg/kg, and the control antibody, which is an inactivated form of aducanumab, was administered at a dose of 5 mg/kg. For the intravenous administration, a total of four injections were administered into the tail vein on the starting day of the experiment and at one-week intervals thereafter.
(§4) For oral administration, 1 mg/kg of the compound of the present disclosure (crystalline form C, BnH-015B) or a vehicle was administered orally once daily for about 11 to 13 days, starting about 2 weeks after the initiation of the experiment.

APP/PS1 mice [4] = assay: TC synaptic potency and GABA/AMPA ratio in the sensory cerebral cortex after dosing; assay type: in vivo; conditions: form C 1 mg/kg orally, aducanumab 5 mg/kg i.v.
Description: as §1, §2, §3, §4
Meanwhile, the efficacy of the compound against Alzheimer's disease was evaluated by measuring the potency and the GABA/AMPA ratio in the sensory cerebral cortex. […]

Aβ plaques = assay: Bielschowsky silver staining of brain sections; assay type: in vivo, mice; conditions: 1 mg/kg orally, cerebral cortex, vs vehicle control
Description: To evaluate the efficacy of crystalline form C of the present disclosure in inhibiting amyloid-beta protein accumulation, mouse proteomic profiling array analysis and Bielschowsky silver staining were performed. […]
Bielschowski silver staining (Bielschowski Silver Staining Kit, ab245877, abcam, Cambridge, UK) was performed according to the manufacturer's protocol. 40 µm-thick brain sections of APP/PS1 mice were incubated in a warm 20% silver nitrate solution at 40°C for 15 minutes, followed by four washes with distilled water and three rinses with water for 3 minutes each. The slides were incubated in an ammoniacal silver solution at 40°C for 10 minutes, and then placed in a developer solution (containing 8 drops of 20% formalin, 8 drops of citric acid, and 4 drops of nitric acid in 50 mL H2O) for a few seconds until the tissue sections turned yellow/brown. Subsequently, the slides were placed in aqueous ammonia for 30 seconds. The sections were washed three times with water for 2 minutes each and incubated in a 5% thiosulfate solution for 2 minutes. […]
Statistical analysis was performed using GraphPad Prism 9.5.0 software (San Diego, CA, USA). […] All data are expressed as mean ± SEM.

[5] = BS1: Solid state, 25°C/92.5% RH, open container
[6] = BS2: Solid state, 40°C/75% RH, open container
[7] = BS3: Solid state, 60°C, closed container

C[C@@H]1CC[C@H](C(=O)O)CN1C(=O)Cc1ccc(F)cc1Cl [Crystalline form C, (3S,6R)-1-(2-(2-chloro-4-fluorophenyl)acetyl)-6-methylpiperidine-3-carboxylic acid]
Color [1, 5]: No color change
Purity (HPLC) Initial purity:99.9% [1, 5]: 99.9%
Color [1, 6]: No color change
Purity (HPLC) Initial purity:99.9% [1, 6]: 99.9%
Color [1, 7]: No color change
Purity (HPLC) Initial purity:99.9% [1, 7]: 99.9%
bulk stability ([1]; from HPLC and XRPD results after 1 week stress): high bulk stability both physically and chemically
Classification of hygroscopicity ([2]; DVS, 25°C): non-hygroscopic
Weight change (%) in 1st adsorption ([2]; Relative humidity 0% at 25°C): 0%
Weight change (%) in 1st desorption ([2]; Relative humidity 0% at 25°C): 0%
Weight change (%) in 2nd adsorption ([2]; Relative humidity 0% at 25°C): 0%
Weight change (%) in 2nd desorption ([2]; Relative humidity 0% at 25°C): 0%
Weight change (%) in 1st adsorption ([2]; Relative humidity 10% at 25°C): 0%
Weight change (%) in 1st desorption ([2]; Relative humidity 10% at 25°C): 0%
Weight change (%) in 2nd adsorption ([2]; Relative humidity 10% at 25°C): 0%
Weight change (%) in 2nd desorption ([2]; Relative humidity 10% at 25°C): 0%
Weight change (%) in 1st adsorption ([2]; Relative humidity 20% at 25°C): 0%
Weight change (%) in 1st desorption ([2]; Relative humidity 20% at 25°C): 0%
Weight change (%) in 2nd adsorption ([2]; Relative humidity 20% at 25°C): 0%
Weight change (%) in 2nd desorption ([2]; Relative humidity 20% at 25°C): 0%
Weight change (%) in 1st adsorption ([2]; Relative humidity 30% at 25°C): 0%
Weight change (%) in 1st desorption ([2]; Relative humidity 30% at 25°C): 0%
Weight change (%) in 2nd adsorption ([2]; Relative humidity 30% at 25°C): 0%
Weight change (%) in 2nd desorption ([2]; Relative humidity 30% at 25°C): 0%
Weight change (%) in 1st adsorption ([2]; Relative humidity 40% at 25°C): 0%
Weight change (%) in 1st desorption ([2]; Relative humidity 40% at 25°C): 0%
Weight change (%) in 2nd adsorption ([2]; Relative humidity 40% at 25°C): 0%
Weight change (%) in 2nd desorption ([2]; Relative humidity 40% at 25°C): 0.1%
Weight change (%) in 1st adsorption ([2]; Relative humidity 50% at 25°C): 0.1%
Weight change (%) in 2nd desorption ([2]; Relative humidity 50% at 25°C): 0.1%
Weight change (%) in 1st adsorption ([2]; Relative humidity 60% at 25°C): 0.1%
Weight change (%) in 2nd desorption ([2]; Relative humidity 60% at 25°C): 0.1%
Weight change (%) in 1st adsorption ([2]; Relative humidity 70% at 25°C): 0.1%
Weight change (%) in 2nd desorption ([2]; Relative humidity 70% at 25°C): 0.1%
Weight change (%) in 1st adsorption ([2]; Relative humidity 80% at 25°C): 0.1%
Weight change (%) in 2nd desorption ([2]; Relative humidity 80% at 25°C): 0.1%
Weight change (%) in 1st adsorption ([2]; Relative humidity 90% at 25°C): 0.1%
Weight change (%) in 2nd desorption ([2]; Relative humidity 90% at 25°C): 0.1%
Weight change (%) in 1st adsorption ([2]; Relative humidity 95% at 25°C): 0.1%
Weight change (%) in 2nd desorption ([2]; Relative humidity 95% at 25°C): 0.1%
crystalline form after the DVS test (XRPD) ([2]; sample obtained after the DVS test): still exhibits crystalline pattern C
moisture uptake ([2]; up to 95% RH, 25°C): less than 0.2%
long-term potentiation (LTP) of the fEPSP, excitatory SC pathway (APP/PS1 mice [3]; hippocampus CA1): significantly increased
slope of the field excitatory postsynaptic potential (fEPSP), synaptic efficacy (APP/PS1 mice [3]; hippocampus CA1, 4 weeks): significantly increased
balance of excitation/inhibition (GABA/AMPA ratio) (APP/PS1 mice [4]): maintaining the balance of excitation/inhibition
excitatory TC synaptic potency (TC potency) (APP/PS1 mice [4]): increased excitatory TC synaptic potency
Aβ plaques (percent area) (Aβ plaques): reduced Aβ plaques
